Assay results published in patent US8168861B2, “Compositions and methods for increasing cellulose production” (The Regents of the University of California, priority 2008, dated 2012).

Experiments:
[1] = tested on: Arabidopsis thaliana hypocotyl; experiment: Dark-grown hypocotyl growth of SRF mutants on isoxaben media; type: in vivo
Experimental: Data is taken from three independent experiments. Data is from hypocotyl lengths relative to wild type plants grown on the same plate and relative to mutants grown on DMSO control media. Student's t-test: *=p<0.05.
Arabidopsis thaliana ecotype Columbia-0 (Col-0) was used. Before plating seeds were surface sterilized. First, the seeds were washed in 95% ethanol for 10 minutes, which was removed then the sterilization solution was added (20% bleach, 0.05% Tween-20 (Sigma) and double distilled water) and shaken for 10 minutes. The sterilization solution was removed and the seeds were washed three times with sterile distilled water. The seeds were cold treated for 4 days at 4° C. after plating them on the plates. Two different growth media were prepared for these experiments. For the control conditions: one-half strength Murashige and Skoog (MS) salts (Sigma), 0.5% sucrose (Sigma), 0.8% phyto agar (Research Products International Corp.), 1×B5 (1,000× in double distilled water: 10% myo-inositol, 0.1% nicotinic acid and 0.1% pyroxidine HCl) and 1× Thiamin (2,000× in double distilled water: 0.2% thiamin HCl). The other growth media contained either no sucrose but all other components remained the same. Plants used in Fourier Transform Infrared (FT-IR) Microspectroscopy and hypocotyl length, were only grown on sucrose-deprived media in the dark for four days after cold treatment. For selection of mutants from the Arabidopsis Biological Resource Center (ARBC), they were first plated onto MS media containing 50 μg/ml Kanamycin to select for insertions containing the NTPII (Kanamycin resistance) gene. In the case this resistance is lost the seeds were also sown onto regular MS media containing no antibiotic and then transferred to soil after one week. Plants were then grown on soil for 2-3 weeks after transfer from the plates and they were examined for status of the T-DNA insertion. Only homozygous T3 and T4 knockout mutants were used for the following experiments.
Isoxaben is a specific inhibitor of cellulose synthesis by affecting the function of the CesA proteins involved in primary cell wall synthesis, such as CesA3 and CesA6 (Scheible et al., 2001; Persson et al., 2007). Because SRF7 in particular is co-expressed with these same CesA genes the effects of isoxaben on SRF mutants was examined. […] The results which are in agreement with the dark-grown hypocotyl phenotypes of the srf mutants supports the hypothesis that SRF6 and SRF7 regulate CesA-mediated synthesis of the primary cell wall

[2] = tested on: CesA and RLK gene expression; conditions: isoxaben treatment, cited from earlier work

## CCC(C)(CC)c1cc(NC(=O)c2c(OC)cccc2OC)on1 [isoxaben]
[1]; dominant negative of SRF7, 0.5 and 1 nM isoxaben
  response of hypocotyl length to isoxaben vs wild type: increased resistance
[1]; dominant negative of SRF7, 5 and 10 nM isoxaben
  response of hypocotyl length to isoxaben vs wild type: increase sensitivity
[1]; overexpression of SRF7 in srf7-1 mutant
  response of hypocotyl length to isoxaben vs wild type: wild type resistance
[1]; srf6-1 and srf7-1 mutants (extracellular domain insertion), up to 10 μM, p<0.05
  response of hypocotyl length to isoxaben vs wild type: significantly more resistant
[1]; srf6-2 and srf7-3 mutants
  response of hypocotyl length to isoxaben vs wild type: increased sensitivity
[1]; srf7-2 mutant
  response of hypocotyl length to isoxaben vs wild type: no difference in isoxaben response
[2]; FIG. 10B
  SRF6 gene expression: reduced gene expression
[2]; FIG. 10D
  primary cell wall CesA gene expression: reduces primary cell wall CesA gene expression
  secondary cell wall CesA gene expression: not the secondary cell wall CesAs
